# Source: US9443060B2, “Method and system to provide personalized pharmaceutical compositions and dosages” (Volant Holdings GMBH, priority 2009, dated 2016)
# Read-outs that look alike come from different tables or passages of the source.
# Experiments:
# [1] = tested on: peripheral insulin exposure (PIE); test: Glucose supply and insulin demand model: effect on peripheral insulin exposure; assay type: in vivo, human
# Method: (§1) Therapeutic targets of the glucose supply (CE, 1+2; HGU, 3; GNG, 4; IR, 5) and insulin demand (PGU, 6; PIE, 7) model are presented in FIG. 1. To identify quantitative differences between antidiabetic agents on CE, HGU, GNG, IR, PGU, and PIE, multidatabase searches (Cochrane Central Register of Controlled Trials and Cochrane Register of Systematic Reviews, Embase, OVID Healthstar, OVID Journals, and PubMed) were conducted cross-referencing title and keywords for all selected antidiabetic therapies and their respective targets.
# (§2) Alpha-glucosidase, biguanide, and thiazolidinedione (TZD) studies with long-term, pre-post design at maximal therapeutic doses were identified to simulate chronic administration. To maintain consistency with cardiovascular trials and accommodate known influences of hyperglycemia and hyperinsulinemia on the respective targets,^13-16 studies including patients with HbA1c in the range of 6-8% and body mass index (BMI)≧30 kg/m^2 were preferentially selected. In the event multiple studies were available to identify the effect of an agent on a therapeutic target, the mean percent change was used. Conversely, if there was evidence that an agent would elicit a response on a given target but no mathematical representation of the difference was provided, conservative estimates consistent with the scale of other agents and the degree of glucose regulation were instituted to best represent the expected effect. Individual agents were then characterized for the 24 h percent change from baseline for CE, HGU, GNG, IR, PGU, and PIE. Carbohydrate exposure was determined as the combined effect of caloric intake and intestinal carbohydrate absorption. Hepatic glucose uptake was defined as the reported value obtained immediately following oral glucose loading. Because GNG is known to be enhanced in the fasting state and persistent throughout the prandial phase,^17,18 effect was determined during the fasting state and considered equivalent throughout the prandial phase. For studies evaluating fasting glucose and insulin concentrations, an index of IR was determined by homeostasis model assessment of insulin resistance (HOM-AIR) using the following formula: Insulin (mU/liter)×Glucose (mmol)/22.5.^19 To account for known differences in secretory and uptake dynamics during the fasting and prandial phases, studies identifying the impact of therapies during the fasting state (or simulated hyperinsulinemic euglycemic clamp) and prandial phase (or oral glucose load insulin clamp) were specifically identified for changes in PGU (glucose infusion rate) and PIE (insulin concentrations) according to Equation (1): […]
# (§3) For sulfonylurea and insulin-based therapies, insulin concentration time profiles were obtained and superimposed on the baseline 24 h insulin concentration time profile of T2D patients (FIG. 2) to calculate the increase in PIE (trapezoidal rule).^20 Calculated increases in incremental and cumulative insulin exposure were correlated to known insulin dose-response effects on HGU, GNG, and PGU (FIG. 3),^18,21 according to the equation y=mx+b. Twenty-four-hour increases in HGU, PGU, and PIE and decreases in GNG were compared to baseline values and percent change calculated.
# (§4) With alpha-glucosidase, biguanide, TZD, secretagogue, and insulin therapies characterized for their respective impacts on CE, HGU, GNG, IR, PIE, and PGU, identification of their effect on the glucose supply (decrease in CE, increase in HGU, decrease in GNG, decrease in IR) and insulin demand (increase in PIE, increase in PGU) dynamic was assessed according to Equation (2), which provides the SD ratio according to the invention: […]
# Twenty-four-hour steady state insulin concentration time curves were superimposed on the baseline secretion profile of the standard T2D patient.
# caloric intake = conditions: Lee and Morley, T2D, cited from earlier work
# [2] = tested on: peripheral insulin exposure (PIE); conditions: cited from earlier work
# [3] = tested on: intestinal glucose utilization; conditions: cited from earlier work
# [4] = tested on: hepatic gluconeogenesis (GNG); conditions: metformin 2550 mg daily, cited from earlier work
# [5] = tested on: intestinal glucose transfer; conditions: metformin 50 mg/kg, mice; cited from earlier work
# insulin resistance (IR) [6] = test: Glucose supply and insulin demand model: effect on insulin resistance; assay type: in vivo, human
# Method: as §1, §2, §3, §4
# insulin resistance (IR) [7] = conditions: cited from earlier work
# [8] = Metformin 2000 mg, Glyburide 10 mg, Pioglitazone 45 mg, Insulin Glargine 0.5 U/kg daily, pH encapsulated glucose 3.0 grams/day
structure (smiles),measurement,setting,value
CN(C)C(=N)N=C(N)N [Metformin],Score PIE,[1]; [8],−0.10
same,PIE,"[1]; adjustment factor = increase in peripheral insulin exposure at the therapeutic dose of Table 1, T2D",−0.10
same,reduction of total caloric intake during the 30 min period,caloric intake; metformin 850 mg for 3 days,30%
same,reduction of total caloric intake during the 30 min period,caloric intake; metformin 1700 mg for 3 days,50%
same,mean fasting and postprandial plasma insulin concentrations,"[2]; Inzucchi, metformin 2000 mg daily, 12 weeks","slightly, but not significantly reduced"
same,FPI,"[2]; Iozzo, metformin, before 63±12",43.0 ± 5.0 pmol/L
same,reduction of FPI,"[2]; Iozzo, metformin",~30%
same,FPI,"[2]; Sharma, metformin 2000 mg daily, 16 weeks, before 76.0±54.5",69.0 ± 45.0 pmol/L
same,reduction in FPI,"[2]; Sharma, metformin 2000 mg daily, 16 weeks",~10%
same,FPI,"[2]; Stumvoll, metformin, before 12±5",10 μU/ml
same,reduction of FPI,"[2]; Stumvoll, metformin",17%
same,FPI,"[2]; Tiikkainen, metformin 2000 mg daily, 16 weeks, before 13",9 mU/liter
same,reduction in FPI,"[2]; Tiikkainen, metformin 2000 mg daily, 16 weeks",~30%
same,reduction of FPI concentrations (range over studies),[2]; metformin,10-30%
same,increase in glucose utilization in mucosa from different regions of the intestine,"[3]; Bailey, metformin 250 mg/kg^−1, normal rats, intravenous glucose tolerance test",30-60%
same,increase in glucose utilization in the jejunum,"[3]; Penicaud, metformin 350 mg/kg^−1/day^−1 for 8 days, obese fa/fa rats",39%
same,"rate of hepatic GNG, ^2H2O method","[4]; Hundal, 3 months, before 0.42±0.04",0.28±0.03 mmol/m^−2/min^−1
same,"rate of hepatic GNG, nuclear magnetic resonance method","[4]; Hundal, 3 months, before 0.59±0.03",0.18±0.03 mmol/m^−2/min^−1
same,"reduction of rate of hepatic GNG, ^2H2O method","[4]; Hundal, 3 months",33%
same,"reduction of rate of hepatic GNG, nuclear magnetic resonance method","[4]; Hundal, 3 months",36%
same,reduction of rate of plasma lactate to plasma glucose conversion (GNG),"[4]; Stumvoll, 16 weeks, fasted T2D",37%
same,rate of plasma lactate to plasma glucose conversion (GNG),"[4]; Stumvoll, 16 weeks, before 7.3±0.7",4.6±0.6 μmol/kg^−1/min^−1
same,reduction of net glucose transfer in the serosal fluid,[5],12%
same,Score IR,insulin resistance (IR) [6]; [8],0.38
same,IR reduction,"insulin resistance (IR) [6]; adjustment factor = decrease in insulin resistance at the therapeutic dose of Table 1, T2D",0.38
same,reduction of calculated IR,"insulin resistance (IR) [7]; T2D patients, maximal therapeutic doses of metformin (Iozzo, Stumvoll, Tiikkainen, Sharma)",38-44%
same,reduction of calculated IR (HOMA-IR),"insulin resistance (IR) [7]; meta-analysis of randomized controlled trials, people at risk for T2D, metformin",22.6%
